According to US9018192B2, “Unitary pharmaceutical dosage form” (Bristol-Myers Squibb & Gilead Sciences, LLC, priority 2005, dated 2015):
Counter-ions that a name gives are not always drawn.

Assay: chemical stability of tenofovir DF in the dosage form (stability studies)
Type: physicochemical

With CC(C)OC(=O)OCOP(=O)(CO[C@H](C)Cn1cnc2c(N)ncnc21)OCOC(=O)OC(C)C [tenofovir DF, tenofovir disoproxil fumarate] the “compatibility of efavirenz formulation with tenofovir DF” value (attributed to the surfactant sodium lauryl sulfate in the efavirenz portion) was “unexpectedly incompatible”, the “stability of tenofovir DF in preparation” value (increased proportion of excipients, wet granulation of the three API combination) was “highly unstable” and the “stability of tenofovir DF in combination tablet” value (three drugs in unitary, essentially homogeneous composition manufactured by wet granulation, stability studies) was “highly unstable and rapidly degraded”.
